Earlier results on one compound are cited in patent EP0523845A2, “New benzodiazepine analogs” (MERCK & CO. INC., priority 1991, dated 1993).

The conditions of the data set: cited from Deschodt-Lanckman et al., Reg. Pept. 2, 15 (1981).

As to `CSCC[C@H](NC(=O)[C@H](Cc1ccc(OS(=O)(=O)O)cc1)NC(=O)[C@@H](N)CC(=O)O)C(=O)NCC(=O)N[C@@H](Cc1c[nH]c2ccccc12)C(=O)N[C@@H](CCSC)C(=O)N[C@@H](CC(=O)O)C(=O)N[C@@H](Cc1ccccc1)C(N)=O` [CCK-8s, H-Asp-Tyr(S03H)-Met-Gly-Trp-Met-Asp-Phe-NH2], the half-life result was “less than 1 hour”.
